Laboratory results published in US20150299659A1, “MUSCLE CELL PRODUCTION” (Monash University, priority 2014, published 2015).

Key:
Assay type in all cases: cell-based, human
hPSCs [1] = assay: CHIR concentration optimisation for differentiation of hPSCs towards a myogenic phenotype
Procedure: Experiments were performed using all four hPSC lines. When colony size reached >600 μm in diameter and colony density on the plate was approximately 30-40%, we induced differentiation of hPSC by switching the culture medium from mTESR1 to a chemically defined, serum-free medium DMEM-F12 supplemented with insulin-transferrin-selenium (ITS) (all from Sigma-Aldrich, St. Louis, Mo.). […] Culture medium was then replaced by ITS containing 20 ng/ml of FGF2 (Miltenyi Biotech) for a further 14 days. For each experimental control condition, hPSCs differentiation was induced as follows: 1) CHIR only: ITS medium containing 3 μM CHIR from days 0-4, followed by ITS medium only until day of analysis; and 2) FGF2 only: ITS medium only between days 0-4, followed by ITS medium containing 20 ng/ml FGF2 for 14 days. Medium was replaced daily until the day of the analysis. Human PSCs were first exposed to 3 μM CHIR for 4 days, and then the small molecule was replaced with 20 ng/ml of FGF2 for an additional 2 weeks (FIG. 2A). To optimize the differentiation of hPSCs towards a myogenic phenotype, different CHIR concentrations were tested. […] The FGF signaling pathway has been identified to regulate several developmental processes of muscle formation. […]

hPSCs [2] = assay: Immunocytochemical quantification of muscle cells in unsorted hPSC cultures; settings: exposure to CHIR for up to 10 days
Procedure: Experiments were performed using all four hPSC lines. When colony size reached >600 μm in diameter and colony density on the plate was approximately 30-40%, we induced differentiation of hPSC by switching the culture medium from mTESR1 to a chemically defined, serum-free medium DMEM-F12 supplemented with insulin-transferrin-selenium (ITS) (all from Sigma-Aldrich, St. Louis, Mo.). […] Culture medium was then replaced by ITS containing 20 ng/ml of FGF2 (Miltenyi Biotech) for a further 14 days. For each experimental control condition, hPSCs differentiation was induced as follows: 1) CHIR only: ITS medium containing 3 μM CHIR from days 0-4, followed by ITS medium only until day of analysis; and 2) FGF2 only: ITS medium only between days 0-4, followed by ITS medium containing 20 ng/ml FGF2 for 14 days. […]
For cytospin preparations of FACS sorted populations, cells were spun onto glass slides using Cytospin 4 (Shandon, Thermofisher, Waltham, Mass.). […] Images were analyzed with Nikon NIS-Elements 3.2 software. […]
Following withdrawal of FGF2 and a further 17 days of culture in ITS medium alone areas with skeletal muscle cells were scored in treated culture dishes, prior to FACS analysis and identified by immunocytochemistry as PAX3+ and PAX7+ precursors (FIG. 2B) (Relaix et al (2005) Nature 435:948-953) and bipolar skeletal myocytes, positive for myogenin and sarcomeric myosin (MF20) (FIG. 2C).

hPSCs [3] = assay: FACS quantification of myogenic cell populations from differentiated hPSCs; settings: for percentage of CXCR4+/C-MET+ and ACHR+ populations compared to CHIR+FGF2 cultures: single-agent conditions (CHIR only or FGF2 only)
Procedure: Experiments were performed using all four hPSC lines. When colony size reached >600 μm in diameter and colony density on the plate was approximately 30-40%, we induced differentiation of hPSC by switching the culture medium from mTESR1 to a chemically defined, serum-free medium DMEM-F12 supplemented with insulin-transferrin-selenium (ITS) (all from Sigma-Aldrich, St. Louis, Mo.). Starting at day 0 of differentiation, cells were cultured in the presence of 3 μM CHIR 99021 (Miltenyi Biotech, Auburn, Calif.) for 4 days. Culture medium was then replaced by ITS containing 20 ng/ml of FGF2 (Miltenyi Biotech) for a further 14 days. For each experimental control condition, hPSCs differentiation was induced as follows: 1) CHIR only: ITS medium containing 3 μM CHIR from days 0-4, followed by ITS medium only until day of analysis; and 2) FGF2 only: ITS medium only between days 0-4, followed by ITS medium containing 20 ng/ml FGF2 for 14 days. Medium was replaced daily until the day of the analysis.
(§1) Cells were dissociated with 0.05% trypsin or TrypLE Select (Invitrogen, Carlsbad, Calif.) to a single cell suspension and incubated with the appropriate fluorochrome-labelled antibodies (Table 1) at a concentration of 10^7 cells/ml for 30 minutes on ice. Indirect labelling of HNK and ACHR antibodies was done using goat anti-mouse Alexa Fluor 488 and goat anti-mouse PE (both from Molecular Probes, Invitrogen) as secondary antibodies. Labelled cells were sorted through a BD Influx (five lasers) flow sorter (BD Biosciences) according to the excitation requirements of the fluorochromes. Sorted populations were analyzed using FlowJo software (Tree Star Inc., Ashland, Oreg.).
Data were analyzed by two-way analysis of variance (ANOVA) followed by Bonferroni's post-test to calculate p values. Analyses were performed using statistical software (GraphPad Prism 5.04; GraphPad Software, San Diego, Calif.). Probability values <0.05 were considered statistically significant. Error bars in each figure represent the standard error of the mean of three or more individual experiments. For qPCR data, p values were calculated for changes in expression of markers over time compared to day 0. For quantitative analysis of FACS sorting data, the percentage of myogenic cells relative to the total number of cells were obtained for each experimental culture treatment, and p values were calculated for differences between the means of each experimental condition.

hESC (HES3) = assay: RT-PCR and marker analysis of dorsal tissue and endoderm in differentiating hPSCs
Procedure: For cytospin preparations of FACS sorted populations, cells were spun onto glass slides using Cytospin 4 (Shandon, Thermofisher, Waltham, Mass.). Cells were then fixed with 100% cold methanol for 5 minutes and subsequently rehydrated in phosphate buffered solution (PBS) for 15-20 minutes. Cultured cells were fixed with 4% paraformaldehyde for 10 minutes at room temperature and permeabilized with 0.3% Triton X-100 in PBS for 30 minutes. A complete list of primary and fluorochrome-labelled secondary antibodies used in this study is provided in the Supporting Information (Table 1). Incubations with primary and subsequently secondary antibodies were performed in Incubation Buffer (0.1% BSA, 2% FBS, 0.1% Triton X-100 in PBS) for 40 minutes at 37° C. Image acquisition was performed on an inverted Nikon Eclipse Ti epifluorescence microscope with the appropriate filter sets using single channel acquisition on a Nikon Digital sight DS-U2 camera. Images were analyzed with Nikon NIS-Elements 3.2 software. All immunofluorescence images are representative of one individual experiment. […]
Total RNA was extracted using RNeasy Mini kit (Qiagen, Hilden, Germany), and DNAse I treatment (Qiagen) was performed to avoid genomic DNA contamination. […] The inventors optimized the PCR conditions and determined the linear amplification range for each primer by varying annealing temperature and cycle number. […]

hESC HES3 = assay: Immunocytochemistry of cytospin preparations of sorted cells
Procedure: as §1
For cytospin preparations of FACS sorted populations, cells were spun onto glass slides using Cytospin 4 (Shandon, Thermofisher, Waltham, Mass.). Cells were then fixed with 100% cold methanol for 5 minutes and subsequently rehydrated in phosphate buffered solution (PBS) for 15-20 minutes. Cultured cells were fixed with 4% paraformaldehyde for 10 minutes at room temperature and permeabilized with 0.3% Triton X-100 in PBS for 30 minutes. A complete list of primary and fluorochrome-labelled secondary antibodies used in this study is provided in the Supporting Information (Table 1). […] Images were analyzed with Nikon NIS-Elements 3.2 software. […]

Compound	toxicity to differentiating hPSCs (hPSCs [1]; CHIR concentration >3 μM)	induction of myogenic phenotype (hPSCs [1]; CHIR doses of <3 μM)	muscle derivation after prolonged exposure (hPSCs [2])	myogenic induction of hPSCs (hPSCs [3]; CHIR only, 3 μM days 0-4, then ITS medium only)	percentage of CXCR4+/C-MET+ and ACHR+ populations compared to CHIR+FGF2 cultures (hPSCs [3])	expression of dorsal markers SOX10 and LMX1a (RT-PCR) (hESC (HES3); day 10 of hESC (HES3) differentiation)	generation of endoderm cells (hESC (HES3); lack of specific endodermal markers in the cultures)	cell fate of CXCR4+/C-MET− and CXCR4−/C-MET+ fractions compared to CHIR+FGF2 (hPSCs [3]; FGF2 only, absence of CHIR treatment)	phenotype of sorted CXCR4+/C-MET− cells (hESC HES3)	phenotype of sorted CXCR4−/C-MET+ cells (hESC HES3)
Cc1c[nH]c(-c2cnc(NCCNc3ccc(C#N)cn3)nc2-c2ccc(Cl)cc2Cl)n1 [CHIR, CHIR 99021]	High toxicity	inefficient induction	no muscle cells were identified	sufficient for myogenic induction	Reduction in the percentage	expressed only in CHIR (GSK3β inhibitor) treated cells	not permissive for the generation of endoderm cells			
FGF2: fibroblast growth factor, used at 20 ng/ml to expand the muscle precursor compartment					almost complete loss			fundamental shift from a myogenic to a non-myogenic cell fate	complete switch towards SOX1 expression	PAX3+ and PAX7+ cells are not present
